Measured values taken from BindingDB's records for doi:10.1021/jm970141k (University of North Texas, 1997).

Experiment: In vitro inhibition of Acetylcholinesterase Activity in octopus brain

## CCCCCSC(=O)OCC[N+](C)(C)C [Trimethyl-(2-pentylsulfanylcarbonyloxy-ethyl)-ammonium; chloride]
  Ki: 2 µM
